Data on eight molecules can be found in paper PMC12022901 (Frontiers in Pharmacology, 2025).

For data set [1] the following is noted: cited from earlier work.
The subject of data set [2] is Coagulation markers (activated partial thromboplastin time and international normalized ratio). The data set is described as follows: Coagulation markers measured 3 h post dose. It counts as in vivo, human (healthy volunteers).
Details of data set [3]: method as in Brown, 2014. Conditions: ref Brown, 2014; cited from earlier work.
The nature of the next data set: clinical. The following applies: for Vd/F: Vz/F; for half-life: t1/2, oral microdose cocktail; for exposure (AUC) during carbamazepine relative to baseline: microdosed FXaI.
Data set [4] is described as follows: Pharmacokinetics of factor Xa inhibitors at baseline and at gabapentin steady-state (open-label fixed-sequence DDI trial). Conditions: human, in vivo, po, oral microdose cocktail, GM. The text has this:
(§1) A p-value < 0.05 was considered significant.

Data set [5] in a line: Pharmacokinetics of factor Xa inhibitors at baseline and at pregabalin steady-state (open-label fixed-sequence DDI trial). The following applies: human, in vivo, po, oral microdose cocktail, GM.
From the text: as §1

Data set [6] in a line: Safety: adverse events in the trial cohorts. Conditions: cohort of the named antiepileptic drug.
A further data set has as its system CYP3A. The data set is described as follows: CYP3A activity assessed by pharmacokinetics of microdosed midazolam (limited sampling, AUC2-4, eCLmet).
[7] abbreviates: 180 min after edoxaban 60 mg alone.
Setting [8] is: 180 min after edoxaban 60 mg with carbamazepine.
The mark [9] stands for this setting: healthy volunteers, 7-d rifampin treatment, ref Mendell et al., 2015.
The mark [10] stands for this setting: human, in vivo, po, oral microdose cocktail (25 µg apixaban, 50 µg edoxaban, 25 µg rivaroxaban), baseline, GM.
Where [11] appears, read: human, in vivo, po, oral microdose cocktail, during carbamazepine steady-state, GM.
[12] abbreviates: human, in vivo, po, oral microdose cocktail, baseline, GM.
The mark [13] stands for this setting: human, in vivo, po, oral microdose cocktail, at carbamazepine steady-state, GM.
Setting [14] is: human, in vivo, po, at carbamazepine steady-state, GM.
Where [15] appears, read: human, in vivo, po, baseline, GM.
Setting [16] is: oral microdose cocktail, at carbamazepine steady-state, GM.
The mark [17] stands for this setting: oral microdose cocktail, baseline, GM.
The mark [18] stands for this setting: carbamazepine cohort, at carbamazepine steady-state, with edoxaban 60 mg.
Setting [19] is: carbamazepine cohort, at carbamazepine steady-state, with microdosed FXaI.
The mark [20] stands for this setting: carbamazepine cohort, baseline, with edoxaban 60 mg.
The mark [21] stands for this setting: gabapentin cohort, at gabapentin steady-state, with edoxaban 60 mg.
Setting [22] is: gabapentin cohort, at gabapentin steady-state, with microdosed FXaI.
[23] abbreviates: gabapentin cohort, baseline, with edoxaban 60 mg.
Setting [24] is: pregabalin cohort, at pregabalin steady-state, with edoxaban 60 mg.
The mark [25] stands for this setting: pregabalin cohort, at pregabalin steady-state, with microdosed FXaI.
[26] abbreviates: pregabalin cohort, baseline, with edoxaban 60 mg.

The AUC(0-inf) is total exposure, with the tail of the curve extrapolated. The low end stands for less exposure, the high end for more exposure. The term Cmax denotes the maximum level reached in the sampled fluid or tissue. What is called Vd/F is the volume of distribution divided by bioavailability. Usually half-life stands for how long it takes for the measured level to halve. Lower therefore signals fast loss. Usually CL/F stands for the apparent clearance, not corrected for the fraction that reaches the circulation.

Procedure for CYP3A: We simultaneously quantified the effect on CYP3A activity with an oral midazolam microdose (30 µg) (Figure 1).
Carbamazepine, gabapentin, and pregabalin were dosed to steady-state during a treatment period of 21 d for carbamazepine, 13 d for gabapentin, and 21 d for pregabalin, followed by the evaluation of their perpetrator effects. Steady-state was ensured until the last blood sample was drawn. Carbamazepine was titrated to a maximum dose of 200 mg twice a day, if possible. If this dose could not be reached due to adverse events, carbamazepine was titrated to therapeutic plasma concentrations (5–10 μg/mL), with the lower range chosen to ensure the safety of the participants. Gabapentin was administered at a dose of 400 mg three times a day and pregabalin at a dose of 300 mg twice a day. Single-dose pharmacokinetics of the microdosed FXaI were assessed at baseline and at the end of the above mentioned treatment period, at steady-state of the perpetrator.
All collected samples were processed within 20 min and plasma was stored at ≤ −20°C until analysis.
Non-compartmental analyses were conducted to assess the pharmacokinetics of the FXaI and midazolam utilizing Phoenix WinNonlin 8.3 (Certara, Inc., Princeton, NJ, United States). Cmax and the time to reach Cmax (tmax) were directly obtained from the concentration data. The area under the concentration-time curve from 0 to infinity ( AUC∞ ) was determined using the log-linear trapezoidal rule with extrapolation to infinity. The half-life (t1/2) was calculated as ln2/λz , with the elimination rate constant λz being estimated utilizing log-linear regression of the elimination phase. Apparent oral CL (CL/F) and volume of distribution (Vz/F) were calculated using standard equations for non-compartmental analysis.

`CN1CCc2nc(C(=O)N[C@@H]3C[C@@H](C(=O)N(C)C)CC[C@@H]3NC(=O)C(=O)Nc3ccc(Cl)cn3)sc2C1` [Edoxaban, edoxaban]: in data set [1] (co-administration with rifampin, ref Lixiana, 2017), the AUC reduction result is on record as “up to 35%”. Moreover, in data set [2] (setting [7]), the “INR, mean” value turned out to be 1.23 and the “aPTT, mean” value is 33.63. In data set [2] (setting [8]), the “INR, mean” value worked out at 1.14 and the “aPTT, mean” value was 29.56. The “coagulation changes induced by edoxaban” value in data set [2] (therapeutic dose or microdose, with gabapentin or pregabalin (data not shown)) is recorded as “not influenced”.

On to `CN1CCc2nc(C(=O)N[C@@H]3C[C@@H](C(=O)O)CC[C@@H]3NC(=O)C(=O)Nc3ccc(Cl)cn3)sc2C1` [Edoxaban M-4], for which the “anticoagulant effects of M-4 and edoxaban” value in data set [3] is “comparable anticoagulant effects”. For the same molecule, in data set [1] (setting [9]), the AUC increase was 2.86 fold and the Cmax increase was 5.06 fold.

Turning to `COc1ccc(-n2nc(C(N)=O)c3c2C(=O)N(c2ccc(N4CCCCC4=O)cc2)CC3)cc1` [µ-apixaban, apixaban], the AUC(0-inf) was 5.9 ng·h/mL in “clinical” (setting [10]); 3.92 ng·h/mL in “clinical” (setting [11]); 6.95 ng·h/mL in data set [4] (baseline); 6.48 ng·h/mL in data set [4] (during gabapentin steady-state); 6.2 ng·h/mL in data set [5] (before pregabalin); 6.07 ng·h/mL in data set [5] (during pregabalin steady-state). Further, the Cmax is 0.719 ng/mL in “clinical” (setting [12]); 0.634 ng/mL in the data set “clinical” (setting [11]); 0.822 ng/mL in data set [4] (baseline); 0.775 ng/mL in data set [4] (during gabapentin steady-state); 0.782 ng/mL in data set [5] (before pregabalin); 0.775 ng/mL in data set [5] (during pregabalin steady-state). Besides, the Vd/F in “clinical” (setting [13]) and in the data set “clinical” (setting [12]) was 36 L throughout. Besides, the half-life in the data set “clinical” (setting [14]) worked out at 3.95 h; in the data set “clinical” (setting [15]) it was 5.97 h. In addition, the “exposure (AUC) during carbamazepine relative to baseline” value in “clinical” turned out to be 66%. In addition, the tmax in “clinical” (oral microdose cocktail (solution), baseline, GM) amounted to 1.6 h; in the data set “clinical” (setting [16]), 1.72 h. In addition, the CL/F in “clinical” (setting [16]) worked out at 6.4 L/h; in the data set “clinical” (setting [17]) it was 4.2 L/h. In data set [1] (combined use with inducers of both CYP3A4 and P-gp such as carbamazepine, ref Eliquis, 2024), the reduction in exposure is reported as roughly 50%.

As for `O=C(NC[C@H]1CN(c2ccc(N3CCOCC3=O)cc2)C(=O)O1)c1ccc(Cl)s1` [µ-rivaroxaban, rivaroxaban], the tmax in the data set “clinical” (human, in vivo, po) was 0.817 h; in the data set “clinical” (setting [16]), 0.817 h. Moreover, the AUC(0-inf) is 3.1 ng·h/mL in the data set “clinical” (setting [10]); 1.73 ng·h/mL in “clinical” (setting [11]); 3.23 ng·h/mL in data set [4] (baseline); 2.98 ng·h/mL in data set [4] (during gabapentin steady-state); 3.08 ng·h/mL in data set [5] (before pregabalin); 3.03 ng·h/mL in data set [5] (during pregabalin steady-state). Further, the Cmax in the data set “clinical” (setting [12]) amounted to 0.695 ng/mL; in “clinical” (setting [11]), 0.524 ng/mL; in data set [4] (baseline), 0.718 ng/mL; in data set [4] (during gabapentin steady-state) it was 0.688 ng/mL; in data set [5] (before pregabalin) it was 0.783 ng/mL; in data set [5] (during pregabalin steady-state), 0.744 ng/mL. For the same molecule, the Vd/F in “clinical” (setting [13]) came to 63 L; in the data set “clinical” (setting [12]), 61 L. Also, the half-life in “clinical” (setting [14]) worked out at 3.02 h; in “clinical” (setting [15]), 5.23 h. Besides, in the data set “clinical”, the “exposure (AUC) during carbamazepine relative to baseline” value came to 56%. For the same molecule, the results for the CL/F in the data set “clinical” (setting [16]) and in the data set “clinical” (setting [17]) were 14 L/h and 8.0 L/h, respectively.

Turning to `NCC1(CC(=O)O)CCCCC1` [gabapentin], in data set [6], the “adverse events deemed possibly related to the trial medication” value (shortened to “adverse events deemed possibly related”) turned out to be 21, the adverse events overall is 39, the “participants with adverse events” value was 11 of 11 and the “severe or serious adverse events” value is recorded as “none was severe or serious”.

`Cc1ncc2n1-c1ccc(Cl)cc1C(c1ccccc1F)=NC2` [Midazolam, midazolam]: the eCLmet in the data set with CYP3A (setting [18]) was 5654 mL/h; with CYP3A (setting [19]), 5636 mL/h; with CYP3A (setting [20]), 997 mL/h; in the data set on CYP3A (carbamazepine cohort, baseline, with microdosed FXaI), 1021 mL/h; with CYP3A (setting [21]), 923 mL/h; in the data set on CYP3A (setting [22]), 957 mL/h. For the same molecule, the eCLmet in the data set with CYP3A (setting [23]) is reported as 931 mL/h; with CYP3A (gabapentin cohort, baseline, with microdosed FXaI), 936 mL/h; in the data set with CYP3A (setting [24]), 1306 mL/h; in the data set with CYP3A (setting [25]), 1198 mL/h; in the data set on CYP3A (setting [26]) it was 1201 mL/h; in the data set on CYP3A (pregabalin cohort, baseline, with microdosed FXaI), 1061 mL/h. Besides, the “eCLmet GMR to baseline” value is listed as 5.54 with CYP3A (setting [18]); 5.52 in the data set with CYP3A (setting [19]); 0.98 with CYP3A (setting [20]); 0.99 in the data set with CYP3A (setting [21]); 1.02 in the data set with CYP3A (setting [22]); 1.0 in the data set with CYP3A (setting [23]). For the same molecule, the “decrease of midazolam AUC2-4” value in the data set on CYP3A (co-administration of carbamazepine) worked out at 82%. Also, the “effect on midazolam pharmacokinetics” value in the data set with CYP3A (gabapentin steady-state) and in the data set with CYP3A (pregabalin steady-state) was “did not alter” each time. Further, the “eCLmet ratio to baseline” value in the data set on CYP3A (setting [24]) amounted to 1.23; in the data set on CYP3A (setting [25]) it was 1.13; in the data set on CYP3A (setting [26]), 1.13.

On to `NC(=O)N1c2ccccc2C=Cc2ccccc21` [carbamazepine], for which, in data set [6], the “adverse events deemed possibly related” value amounted to 19; the adverse events overall is 29; the “participants with adverse events” value is reported as 12 of 13; the “severe or serious adverse events” value is “none was serious, one was severe”.

In the case of `CC(C)C[C@H](CN)CC(=O)O` [pregabalin], in data set [6], the “adverse events deemed possibly related” value stood at 25, the adverse events overall is recorded as 37, the “participants with adverse events” value is on record as 11 of 12 and the “severe or serious adverse events” value is on record as “none was severe or serious”.
